1 molecule from PMC3658555 (ACS Chemical Biology, 2013) can be followed below.

For test [1], the target named is T1, β2AR (Homo sapiens, UniProt P07550). As to the kind of experiment: GloSensor cAMP formation assay. The format is cell-based. The note with it: from cAMP formation and β-arrestin recruitment.
Test [2] concerns the target T1, β2AR. As to the kind of experiment: Bias factor by the operational model, β-arrestin recruitment. The format is cell-based. Background: Activated receptors often draw arrestin, which recruitment assays turn into a signal.

T1 sequence (P07550 whole entry): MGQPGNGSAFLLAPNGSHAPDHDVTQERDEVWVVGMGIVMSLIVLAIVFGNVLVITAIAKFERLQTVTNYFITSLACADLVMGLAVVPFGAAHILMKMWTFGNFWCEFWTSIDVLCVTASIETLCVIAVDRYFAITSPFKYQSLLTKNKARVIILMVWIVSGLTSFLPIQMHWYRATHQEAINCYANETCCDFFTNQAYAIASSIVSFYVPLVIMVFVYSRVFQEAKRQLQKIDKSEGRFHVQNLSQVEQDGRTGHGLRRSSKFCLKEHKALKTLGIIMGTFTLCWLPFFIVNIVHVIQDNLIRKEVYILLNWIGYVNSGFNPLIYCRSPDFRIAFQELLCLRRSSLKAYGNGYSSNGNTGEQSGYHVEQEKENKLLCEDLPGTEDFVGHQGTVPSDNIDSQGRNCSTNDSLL

Take `CC(Cc1ccc2c(c1)OCO2)NCC(O)c1ccc(O)c(O)c1` (stereo not drawn) [Compound 12, protokylol]: in test [1], the “agonist efficacy class at β2AR” value was “full agonists”. In addition, the “times more efficacious in β-arrestin recruitment than in G protein-mediated cAMP production” value in test [2] (compared to isoproterenol, the unbiased reference) was “approximately 10 times”. In addition, the bias factor result in test [2] (toward β-arrestin, from both Tango and DiscoveRx β-arrestin against Glosensor cAMP data sets, reference isoproterenol) is “around 1”.
